Source: PubChem BioAssay AID248 (DTP/NCI, 2004)
Where “and” joins values, the source holds several entries; their conditions need not be identical. Equal entries are not always repeated. Toxic doses and inconclusive results are not listed. Cut-off read from the data, not from the text of the source: active = T/C of 150% or more; inactive = T/C below 125%.

Test system: L1210 leukemia ip in BDF1 mice, survival T/C
Experiment: NCI In Vivo Anticancer Drug Screen. Data for tumor model L1210 Leukemia (intraperitoneal) in B6D2F1 (BDF1) mice
Conditions: endpoint: mean survival time, higher = longer survival
How it was run: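 In this screen, tumor-bearing mice given compound are compared to those given vehicle, and their survival values are reported as a treated-to-control quotient.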

[1] = dose: 50.0 mg/kg/injection, schedule: Q01DX009 (ip), vehicle: saline
[2] = dose: 100.0 mg/kg/injection, schedule: Q01DX009 (ip), vehicle: saline
[3] = dose: 200.0 mg/kg/injection, schedule: Q01DX009 (ip), vehicle: saline
[4] = dose: 100.0 mg/kg/injection, schedule: Q04DX002 (ip), vehicle: Klucel (hydroxypropylcellulose) (HPC)
[5] = dose: 200.0 mg/kg/injection, schedule: Q04DX002 (ip), vehicle: Klucel (hydroxypropylcellulose) (HPC)
[6] = dose: 400.0 mg/kg/injection, schedule: Q04DX002 (ip), vehicle: Klucel (hydroxypropylcellulose) (HPC)
[7] = dose: 100.0 mg/kg/injection, schedule: Q04DX003 (ip), vehicle: saline
[8] = dose: 50.0 mg/kg/injection, schedule: Q01DX001 (ip), vehicle: saline
[9] = dose: 100.0 mg/kg/injection, schedule: Q01DX001 (ip), vehicle: saline
[10] = dose: 100.0 mg/kg/injection, schedule: Q04DX003 (ip), vehicle: Klucel (hydroxypropylcellulose) (HPC)
[11] = dose: 200.0 mg/kg/injection, schedule: Q04DX003 (ip), vehicle: Klucel (hydroxypropylcellulose) (HPC)
[12] = dose: 400.0 mg/kg/injection, schedule: Q04DX003 (ip), vehicle: Klucel (hydroxypropylcellulose) (HPC)

Measured: T/C

C=C1C(=O)OC2CCCC/C=C\C12 (centres undefined)
inactive: [1] 95 % of control | [2] 98 % of control | [3] 95 % of control

CCOP(=O)(Nc1ccc2c(c1)Cc1c-2cc(Br)c(NC(C)=O)c1Br)OCC
inactive: dose: 50.0 mg/kg/injection, schedule: Q01DX001 (ip), vehicle: carboxymethylcellulose (CMC) 97 % of control | dose: 100.0 mg/kg/injection, schedule: Q01DX001 (ip), vehicle: carboxymethylcellulose (CMC) 94 % of control | dose: 200.0 mg/kg/injection, schedule: Q01DX001 (ip), vehicle: carboxymethylcellulose (CMC) 105 % of control | dose: 400.0 mg/kg/injection, schedule: Q01DX001 (ip), vehicle: carboxymethylcellulose (CMC) 100 % of control

CCOP(=O)(OCC)OCc1ccccc1
inactive: dose: 12.5 mg/kg/injection, schedule: Q04DX003 (ip), vehicle: saline with Tween-80 98 % of control

C1CCN2CC3CC(CN4CCCCC34)C2C1 (centres undefined)
inactive: dose: 10.0 mg/kg/injection, schedule: Q01DX009 (ip), vehicle: saline 104 % of control | dose: 20.0 mg/kg/injection, schedule: Q01DX009 (ip), vehicle: saline 102 % of control | dose: 20.0 mg/kg/injection, schedule: Q04DX003 (ip), vehicle: saline 100 % of control | dose: 40.0 mg/kg/injection, schedule: Q01DX009 (ip), vehicle: saline 100 % of control | dose: 40.0 mg/kg/injection, schedule: Q04DX003 (ip), vehicle: saline 96 % of control

Clc1ccc(CSc2ncc(Br)c(N3CC3)n2)c(Cl)c1
inactive: dose: 88.0 mg/kg/injection, schedule: Q01DX Z (ip), vehicle: methylcellulose (MC) 89 % of control | dose: 133.0 mg/kg/injection, schedule: Q01DX Z (ip), vehicle: methylcellulose (MC) 94 % of control

O=S1(=O)CCC(N(/N=C/c2c[nH]c3ccccc23)c2ccccc2)C1 (centres undefined)
inactive: [4] 103 % of control | [5] 110 % of control | [6] 100 % of control

BrCC(Br)C(Br)CBr (centres undefined)
inactive: [2] 93 % of control | [7] 113 % of control | [3] 97 % of control | dose: 200.0 mg/kg/injection, schedule: Q04DX003 (ip), vehicle: saline 108 % of control | dose: 400.0 mg/kg/injection, schedule: Q01DX009 (ip), vehicle: saline 93 % of control | dose: 400.0 mg/kg/injection, schedule: Q04DX003 (ip), vehicle: saline 98 % of control

CC1C[N-]CC(C)C1.[CH-]=C(C)C.[Cl][Pt+2][Cl] (centres undefined)
inactive: dose: 50.0 mg/kg/injection, schedule: Q04DX003 (ip), vehicle: saline 115 % of control | [7] 111 % of control

CN(C)S(=O)(=O)c1ccc(CCc2ccc(S(=O)(=O)N(C)C)cc2)cc1
inactive: [8] 93 % of control | [9] 91 % of control | dose: 200.0 mg/kg/injection, schedule: Q01DX001 (ip), vehicle: saline 91 % of control | dose: 400.0 mg/kg/injection, schedule: Q01DX001 (ip), vehicle: saline 96 % of control

N#C/C(=C\C1CCCC([N+](=O)[O-])C1)C1CCC([N+](=O)[O-])CC1 (centres undefined)
inactive: [4] 122 % of control | [5] 100 % of control | [6] 100 % of control

O=[N+]([O-])c1cc2c(cc1Br)nc(Cl)c1cc(Br)ccc12
inactive: dose: 100.0 mg/kg/injection, schedule: Q01DX009 (ip), vehicle: Klucel (hydroxypropylcellulose) (HPC) 89 % of control | [10] 104 % of control | dose: 200.0 mg/kg/injection, schedule: Q01DX009 (ip), vehicle: Klucel (hydroxypropylcellulose) (HPC) 91 % of control | [11] 100 % of control | [12] 96 % of control

CN1c2ccccc2NP1(=S)c1ccccc1 (centres undefined)
inactive: dose: 100.0 mg/kg/injection, schedule: Q04DX002 (ip), vehicle: saline with Tween-80 90 % of control | dose: 200.0 mg/kg/injection, schedule: Q04DX002 (ip), vehicle: saline with Tween-80 90 % of control | dose: 400.0 mg/kg/injection, schedule: Q04DX002 (ip), vehicle: saline with Tween-80 87 % of control

CCCCCCCNC(C)=O
inactive: dose: 25.0 mg/kg/injection, schedule: Q01DX001 (ip), vehicle: saline 99 % of control | dose: 25.0 mg/kg/injection, schedule: Q01DX009 (ip), vehicle: saline 106 % of control | [8] 116 % of control | [1] 95 % of control | dose: 100.0 mg/kg/injection, schedule: Q01DX001 (ip), vehicle: saline with Tween-80 92 % of control | [9] 99 % of control

Cc1cc(O)cc(C)c1C1=NCC(C)S1 (centres undefined)
inactive: [4] 104 % of control | [5] 90 % of control | [6] 90 % of control

O=C(N/N=C(\C=N\NC(=O)c1ccccc1)CC(O)C(O)CO)c1ccccc1 (centres undefined)
inactive: [10] 91 % of control | [11] 96 % of control | [12] 93 % of control

O=C(C(Br)C(Br)c1ccccc1)C(Br)C(Br)c1ccccc1 (centres undefined)
inactive: dose: 100.0 mg/kg/injection, schedule: Q04DX003 (ip), vehicle: saline sonified 101 % of control | dose: 200.0 mg/kg/injection, schedule: Q04DX003 (ip), vehicle: saline sonified 105 % of control | dose: 400.0 mg/kg/injection, schedule: Q04DX003 (ip), vehicle: saline sonified 97 % of control

ClC1=CCCCC1
inactive: dose: 25.0 mg/kg/injection, schedule: Q01DX009 (ip), vehicle: acetone 95 % of control | dose: 50.0 mg/kg/injection, schedule: Q01DX009 (ip), vehicle: acetone 101 % of control | dose: 100.0 mg/kg/injection, schedule: Q01DX009 (ip), vehicle: acetone 100 % of control

CC(Br)C(=O)Nc1ccc(C(=O)O)c(O)c1 (centres undefined)
inactive: dose: 25.0 mg/kg/injection, schedule: Q01DX009 (ip), vehicle: saline with Tween-80 112 % of control | dose: 50.0 mg/kg/injection, schedule: Q01DX009 (ip), vehicle: saline with Tween-80 98 % of control | dose: 100.0 mg/kg/injection, schedule: Q01DX009 (ip), vehicle: saline with Tween-80 100 % of control and 107 % of control

COc1cc(=O)oc(/C=C/C=C/C=C/C(C)=C\C2(C)OC(C)C(C)(O)C2O)c1C (centres undefined)
inactive: dose: 12.5 mg/kg/injection, schedule: Q01DX009 (ip), vehicle: other 93 % of control | dose: 25.0 mg/kg/injection, schedule: Q01DX009 (ip), vehicle: other 100 % of control | dose: 50.0 mg/kg/injection, schedule: Q01DX009 (ip), vehicle: other 93 % of control

SCCCCN1CCCCC1
inactive: dose: 3.0 mg/kg/injection, schedule: Q01DX001 (ip), vehicle: carboxymethylcellulose (CMC) 102 % of control | dose: 6.0 mg/kg/injection, schedule: Q01DX001 (ip), vehicle: carboxymethylcellulose (CMC) 100 % of control | dose: 12.0 mg/kg/injection, schedule: Q01DX001 (ip), vehicle: carboxymethylcellulose (CMC) 107 % of control | dose: 25.0 mg/kg/injection, schedule: Q01DX001 (ip), vehicle: carboxymethylcellulose (CMC) 95 % of control
